From patent publication US8481597B2, “Use of (-) (3-trihalomethylphenoxy) (4-halophenyl) acetic acid derivatives for treatment of insulin resistance, type 2 diabetes, hyperlipidemia and hyperuricemia” (Metabolex, Inc., priority 1999, dated 2013)
Entries after “also recorded” stand apart in the source; their conditions may differ.

Tested on: C57BL/6J db/db mice
Assay: Prevention of diabetes and alleviation of hypertriglyceridemia in db/db mice (Example 15)
Type: in vivo
Conditions: 150 mg/kg/day in chow for 9 weeks
Method: Blood samples were taken at 8-10 AM once a week for 9 weeks under non-fasting condition. Food intake and body weight were measured every 1-3 days. Plasma glucose and triglyceride concentrations were determined colorimetrically using kits from Sigma Chemical Co (No. 315 and No. 339, St. Louis, Mo., USA). Plasma insulin levels were measured using RIA assay kit purchased from Linco Research (St. Charles, Mo.).

## CC(=O)NCCOC(=O)C(Oc1cccc(C(F)(F)F)c1)c1ccc(Cl)cc1 (single isomer, unassigned; (-)) [(−) halofenate, (−) 2-acetamidoethyl 4-chlorophenyl-(3-trifluoromethylphenoxy)acetate]
  increase of plasma glucose levels with age, in words: prevented or significantly delayed
  plasma insulin concentration, in words: maintained the plasma insulin concentration
  plasma triglyceride concentration, in words: alleviated the increase of plasma triglyceride concentration; also recorded: alleviated hyperlipidemia
